This is an account of results in paper PMC4294348 (Oncotarget, 2014).

As usually defined, the Cmax is the peak of the concentration-time curve. The AUC is the area under the concentration-time curve, a measure of exposure. Lower therefore signals low exposure. As usually defined, the Tmax is the time from dosing to the highest level.

The series in a line: Motesanib plasma pharmacokinetics (LC-MS/MS). The class given is in vivo, human. The conditions noted are these: for Cmax / AUC / Tmax: human, plasma; for Cmax / AUC: po; for AUC: time 0 to 24 hours; for Tmax: listed as 'Mean'. As to the method:
Motesanib PK was assessed by comparing week 1 versus week 4 or 5 (motesanib without and with trebananib, respectively). Serum samples for the evaluation of minimum and maximum observed trebananib concentrations in the plasma were collected immediately before dosing on day 1 of weeks 2, 3, 4, 5, 6, 8, and every 8 weeks thereafter until 4 weeks after the last dose of study treatment. In addition, intensive sampling was conducted at the end of infusion, and 6, 24, 48, and 96 hours following dosing on day 1 of weeks 4 or 5. The samples were analysed for trebananib concentrations employing a validated enzyme-linked immunosorbent assay.
For motesanib, postdose samples were taken at 0.5, 1, 4, 6, and 24 hours during weeks 1 and 5 (without and with trebananib coadministration, respectively). Motesanib plasma concentrations were assessed with a validated liquid chromatography/mass spectrometry (LC-MS/MS) method at Cedra Corporation (Austin, TX).

Setting [1] is: 75 mg, motesanib 75 mg oral QD without trebananib, mean.
[2] abbreviates: 125 mg, motesanib 125 mg oral QD without trebananib, mean.
The mark [3] stands for this setting: motesanib 75 mg oral QD with trebananib 3 mg kg^−1, mean.
Setting [4] is: motesanib 125 mg oral QD with trebananib 3 mg kg^−1, mean.

On to `CC1(C)CNc2cc(NC(=O)c3cccnc3NCc3ccncc3)ccc21` [Motesanib], for which the Cmax came to 466 ng/mL under setting [1], 559 ng/mL under setting [2], 507 ng/mL under setting [3] and 541 ng/mL under setting [4]. The exposure (AUC) under setting [1] was 2580 ng·h/mL, the AUC under setting [2] is 3130 ng·h/mL, the AUC under setting [3] came to 3180 ng·h/mL and the AUC under setting [4] is 3920 ng·h/mL. The Tmax is, setting by setting: (motesanib 75 mg oral QD with trebananib 3 mg kg^−1) 1 h; (motesanib 75 mg oral QD without trebananib) 1.1 h; (motesanib 125 mg oral QD without trebananib) 1 h. Further, the “Effect of trebananib on motesanib PK” value (motesanib 75 mg or 125 mg with trebananib 3 mg kg^−1) is recorded as “did not appear to be affected”. The CL (motesanib 75 mg oral QD without trebananib, mean) amounted to 0.348 mL/min/kg.
